Experimental data as given in US20260265304A1, “PEPTIDE INHIBITORS OF FOCAL ADHESION KINASE ACTIVITY AND USES THEREOF” (Arizona Board of Regents on Behalf of the University of …, priority 2019, published 2026).
Read-outs that look alike come from different tables or passages of the source. Positions of bridges follow the written chain, without caps; N, C: chain ends. Non-standard residues stand in square brackets, D forms with d. Residues, ends and D or L forms follow the SMILES beside them. *: point of attachment. Myristoyl = CCCCCCCCCCCCCC(=O)*; R8 = C=CCCCCCC[C@@](C)(N)C(=O)O; R5 = C=CCCC[C@@](C)(N)C(=O)O; S5 = C=CCCC[C@](C)(N)C(=O)O

Tests used:
[1] = molecular target: T1, FAK FAT domain (biotinylated Avitag-FAT protein) (Homo sapiens, UniProt Q05397); assay: Surface plasmon resonance (SPR) binding to immobilised FAT protein; settings: for Kd: FAT protein immobilised, peptide 200 μM-0.01 μM, 1:1 binding model; for binding and inhibitory properties (SPR/FP) in words, compared to 1907: SAR discussion of SPR and FP data
T1 construct: biotinylated Avitag-FAT protein was diluted in running buffer
T1 sequence (Q05397 914-1045 limits assumed): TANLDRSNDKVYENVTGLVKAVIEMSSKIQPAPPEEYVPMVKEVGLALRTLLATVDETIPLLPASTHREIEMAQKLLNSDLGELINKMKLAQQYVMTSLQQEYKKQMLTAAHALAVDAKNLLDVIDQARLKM
Protocol: SPR binding studies were performed on a ForteBio Pioneer FE SPR system. In brief, a SADH Streptavidin in Dextran Hydrogel biosensor (ForteBio) was docked onto the flow cell and preconditioned with two injections of 10 mM NaOH, 1 M NaCl for 1 min at 50 μL/min. […] Empty channel 2 served as the reference control. After achieving a stable baseline, a concentration series (200 μM-0.01 μM) of peptide was prepared in final running buffer (100 mM Tris-HCl, 200 mM NaCl, 0.05% Tween-20, 5% DMSO) and injected using the OneStep gradient injection method at a flow rate of 75 μL/min. […] Raw SPR data were appropriately processed in Qdat software (ForteBio) by normalizing the baseline prior to injection, aligning the channels, subtraction of the reference channel, and blank subtraction. Kinetic data were fitted to a pseudo-first order 1:1 interaction binding model using to calculate KD. In addition, a steady-state model and Req data points were used to validate the binding affinity. Visual inspection of the SPR sensograms was performed to verify appropriate model fitting, lack of mass transport effects, return to baseline, and lack of irregular kinetics.

[2] = molecular target: T2, FAK FAT domain (paxillin-FAT binding) (Homo sapiens, UniProt Q05397); assay: Competition fluorescence polarization (FP) assay, inhibition of TAMRA-LD2 binding to FAT
T2 construct: FP Buffer containing 20 μM FAT and 0.1 μM TAMRA-LD2
T2 sequence (Q05397 914-1045 limits assumed): T1 sequence (Q05397 914-1045 limits assumed)
Protocol: The FP assay buffer used was 20 mM Tris, 200 mM NaCl, 0.05% β-me, 0.1% Triton X-100, 5% glycerol, and 1× Halt protease inhibitor cocktail. […] Bodipy TMR FP optical module (2100-4100) was used as the mirror.
Wells with no FAT were used as a baseline value which was subtracted from the raw values to produce ΔmP values. The plate was read at every hour for four hours to test for time differences in IC50. The titration data was processed through GraphPad Prism to produce a dose response curve and a calculated IC50 with standard error (SE). A four-parameter dose-response inhibition model was utilized and the bottom fit was constrained to the lower plateau of the curve. Ki was determined from the following calculation:
P0 is the concentration of free protein and KD is calculated from the saturation curve. 150 is calculated by the following equation:
where PT is the total protein concentration, LT is the total labeled-ligand concentration, P0 is the positive root of P0^2+(KD+LT)*P0−PT, PL0=P−P0, PL50=PL0/2, L0=LT-PL0, and L50=LT-PL50.

Kd ([1]; read-out: SPR KD)	Compound	binding and inhibitory properties (SPR/FP) in words, compared to 1907 [1]	Ki ([2]; read-out: FP Ki)	Kd ([1]; SPR KD)	Ki [2]
32.3 µM	CSCC[C@@H]1NC(=O)[C@H](CC(C)C)NC(=O)[C@H](CCC(=O)O)NC(=O)[C@H](CC(=O)O)NC(=O)[C@H](CC(C)C)NC(=O)[C@H](CCC(=O)O)NC(=O)[C@](C)(NC(=O)[C@@H](NC(=O)[C@H](C)NC(=O)[C@H](CO)NC(C)=O)[C@@H](C)O)CCCCCCC=CCCC[C@@](C)(C(=O)N[C@@H](CO)C(=O)N[C@@H](CC(C)C)C(=O)N[C@@H](CO)C(=O)N[C@@H](CC(=O)O)C(N)=O)NC1=O [Peptide 1916, Ac-SATR8ELDELMS5SLSD-NH2] (Ac-SAT[R8]ELDELM[S5]SLSD-NH2; staple 4-11)	did not have comparable activity to LD2-derived 1907	47.5 µM		
	CCCCCCCCCCCCCC(=O)NCCCC[C@@H]1NC(=O)[C@H](CC(=O)O)NC(=O)[C@H](CC(C)C)NC(=O)[C@H](CCC(=O)O)NC(=O)[C@](C)(NC(=O)[C@H](CC(C)C)NC(=O)[C@H](CC(N)=O)NC(C)=O)CCCCCCC=CCCC[C@@](C)(C(=O)N[C@@H](CCC(=O)O)C(=O)N[C@@H](CC(C)C)C(=O)N[C@@H](CC(N)=O)C(N)=O)NC(=O)[C@H](CC(C)C)NC(=O)[C@H](CC(C)C)NC1=O [Peptide 2029, Ac-NLR8ELDK(myristoyl)LLS5ELN-NH2] (Ac-NL[R8]ELDK(Myristoyl)LL[S5]ELN-NH2; staple 3-10)			19.5 µM	
	CC(=O)N[C@@H](CC(N)=O)C(=O)N[C@@H](CC(C)C)C(=O)N[C@@H](CO)C(=O)N[C@@H](CCC(=O)O)C(=O)N[C@@H](CC(C)C)C(=O)N[C@@H](CC(=O)O)C(=O)N[C@@H](CCCNC(=N)N)C(=O)N[C@@]1(C)CCCC=CCCC[C@@](C)(C(=O)N[C@@H](CC(N)=O)C(N)=O)NC(=O)[C@H](CCC(=O)O)NC(=O)[C@H](CC(C)C)NC(=O)[C@H](CC(C)C)NC1=O [Peptide 2015] (Ac-NLSELDR[S5]LLE[S5]N-NH2; staple 8-12)	did not show much activity compared to 1907		47.5 µM	114 µM
	CC(=O)N[C@]1(C)CCCCCCC=CCCC[C@@](C)(C(N)=O)NC(=O)[C@H](CC(C)C)NC(=O)[C@H](CC(C)C)NC(=O)[C@H](CCCNC(=N)N)NC(=O)[C@H](CC(=O)O)NC(=O)[C@H](CC(C)C)NC(=O)[C@H](CCC(=O)O)NC1=O [Peptide 2011, Ac-R8ELDRLLS5-NH2] (Ac-[R8]ELDRLL[S5]-NH2; staple 1-8)	no binding and inhibitory properties			
20.3 µM	CC(=O)N[C@@H](CC(N)=O)C(=O)N[C@]1(C)CCCCCCC=CCCC[C@@](C)(C(=O)N[C@@H](CC(C)C)C(=O)N[C@@H](CCC(=O)O)C(=O)N[C@@H](CC(C)C)C(=O)N[C@@H](CC(N)=O)C(N)=O)NC(=O)[C@H](CC(C)C)NC(=O)[C@H](CCCNC(=N)N)NC(=O)[C@H](CC(=O)O)NC(=O)[C@H](CC(C)C)NC(=O)[C@H](CCC(=O)O)NC(=O)[C@H](CO)NC1=O [Peptide 2017, Ac-NR8SELDRLS5LELN-NH2] (Ac-N[R8]SELDRL[S5]LELN-NH2; staple 2-9)	limited activity compared to 1907	80.6 µM		
155 µM	CC(=O)N[C@@H](CC(N)=O)C(=O)N[C@@H](CC(C)C)C(=O)N[C@]1(C)CCCCCCC=CCCC[C@@](C)(C(=O)N[C@@H](CCC(=O)O)C(=O)N[C@@H](Cc2c[nH]c3ccccc23)C(=O)N[C@@H](CC(N)=O)C(N)=O)NC(=O)[C@H](CC(C)C)NC(=O)[C@H](CC(C)C)NC(=O)[C@H](CCCNC(=N)N)NC(=O)[C@H](CC(=O)O)NC(=O)[C@H](Cc2c[nH]c3ccccc23)NC(=O)[C@H](CCC(=O)O)NC1=O [Peptide 1933, Ac-NLR8EWDRLLS5EWN-NH2] (Ac-NL[R8]EWDRLL[S5]EWN-NH2; staple 3-10)	worse binding and inhibitory properties compared to 1907	281 µM		
64.3 µM	CC(=O)N[C@@H](CC(N)=O)C(=O)N[C@@H](CC(C)C)C(=O)N[C@@H](CO)C(=O)N[C@@H](CCC(=O)O)C(=O)N[C@]1(C)CCCCCCC=CCCC[C@@](C)(C(=O)N[C@@H](CC(N)=O)C(N)=O)NC(=O)[C@H](CCC(=O)O)NC(=O)[C@H](CC(C)C)NC(=O)[C@H](CC(C)C)NC(=O)[C@H](CC(C)C)NC(=O)[C@H](CCCNC(=N)N)NC(=O)[C@H](CC(=O)O)NC1=O [Peptide 1914, Ac-NLSER8DRLLLES5N-NH2] (Ac-NLSE[R8]DRLLLE[S5]N-NH2; staple 5-12)	limited activity compared to 1907			
13.7 µM	CC(=O)N[C@@H](CC(N)=O)C(=O)N[C@@H](CC(C)C)C(=O)N[C@@H](CCCNC(=N)N)C(=O)N[C@@H](CCC(=O)O)C(=O)N[C@@]1(C)CCCC=CCCC[C@@](C)(C(=O)N[C@@H](CCCNC(=N)N)C(=O)N[C@@H](CCC(=O)O)C(=O)N[C@@H](CC(C)C)C(=O)N[C@@H](CC(N)=O)C(N)=O)NC(=O)[C@H](CC(C)C)NC(=O)[C@H](CCCNC(=N)N)NC(=O)[C@H](CC(=O)O)NC1=O [Peptide 1931, Ac-NLRES5DRLS5RELN-NH2] (Ac-NLRE[S5]DRL[S5]RELN-NH2; staple 5-9)		14.5 µM		
	CC(=O)N[C@@H](CC(N)=O)C(=O)N[C@@H](CC(C)C)C(=O)N[C@@H](CO)C(=O)N[C@@H](CCC(=O)O)C(=O)N[C@@H](CC(C)C)C(=O)N[C@@H](CC(=O)O)C(=O)N[C@@H](CCCNC(=N)N)C(=O)N[C@@H](CC(C)C)C(=O)N[C@]1(C)CCCC=CCCC[C@@](C)(C(=O)N[C@@H](CC(N)=O)C(N)=O)NC(=O)[C@H](CCC(=O)O)NC(=O)[C@H](CC(C)C)NC1=O [Peptide 1921] (Ac-NLSELDRL[R5]LE[S5]N-NH2; staple 9-12)	did not show much activity compared to 1907	492 µM		
	CC(=O)N[C@@H](CC(N)=O)C(=O)N[C@@H](CC(C)C)C(=O)N[C@]1(C)CCCCCCC=CCCC[C@@](C)(C(=O)N[C@@H](CCC(=O)O)C(=O)N[C@@H](CCC(=O)O)C(=O)N[C@@H](CC(N)=O)C(N)=O)NC(=O)[C@H](CC(C)C)NC(=O)[C@H](CC(C)C)NC(=O)[C@H](CCCNC(=N)N)NC(=O)[C@H](CC(=O)O)NC(=O)[C@H](CCC(=O)O)NC(=O)[C@H](CCC(=O)O)NC1=O [Peptide 2014, Ac-NLR8EEDRLLS5EEN-NH2] (Ac-NL[R8]EEDRLL[S5]EEN-NH2; staple 3-10)	completely no binding and inhibitory properties			
	CC(=O)N[C@@H](CC(N)=O)C(=O)N[C@@H](CC(C)C)C(=O)NC(C)(C)C(=O)N[C@@H](CCC(=O)O)C(=O)N[C@@H](CC(C)C)C(=O)N[C@@H](CC(=O)O)C(=O)N[C@@H](CCCNC(=N)N)C(=O)N[C@@H](CC(C)C)C(=O)N[C@@H](CC(C)C)C(=O)NC(C)(C)C(=O)N[C@@H](CCC(=O)O)C(=O)N[C@@H](CC(C)C)C(=O)N[C@@H](CC(N)=O)C(N)=O [Peptide 1912, Ac-NLAibELDRLLAibELN-NH2]	lower activity compared to 1907			
> 200 µM	CC(=O)N[C@@H](CC(N)=O)C(=O)N[C@@H](CC(C)C)C(=O)N[C@@H](CO)C(=O)N[C@]1(C)CCCCCCC=CCCC[C@@](C)(C(=O)N[C@@H](CC(C)C)C(=O)N[C@@H](CC(N)=O)C(N)=O)NC(=O)[C@H](CC(C)C)NC(=O)[C@H](CC(C)C)NC(=O)[C@H](CC(C)C)NC(=O)[C@H](CCCNC(=N)N)NC(=O)[C@H](CC(=O)O)NC(=O)[C@H](CC(C)C)NC1=O [Peptide 1905, Ac-NLSR8LDRLLLS5LN-NH2] (Ac-NLS[R8]LDRLLL[S5]LN-NH2; staple 4-11)	no binding and inhibitory properties			

Compound	Kd ([1]; read-out: SPR KD)	binding and inhibitory properties (SPR/FP) in words, compared to 1907 [1]	Ki ([2]; read-out: FP Ki)	Kd ([1]; SPR KD)	Ki [2]
CC(=O)N[C@@H](CO)C(=O)N[C@@H](C)C(=O)N[C@H](C(=O)N[C@@H](CCCNC(=N)N)C(=O)N[C@@H](CCC(=O)O)C(=O)N[C@@]1(C)CCCC=CCCC[C@@](C)(C(=O)N[C@@H](C)C(=O)N[C@@H](CO)C(=O)N[C@@H](CC(C)C)C(=O)N[C@@H](CO)C(=O)N[C@@H](CC(=O)O)C(N)=O)NC(=O)[C@H](CC(C)C)NC(=O)[C@H](CCC(=O)O)NC(=O)[C@H](CC(=O)O)NC1=O)[C@@H](C)O [Peptide 1917, Ac-SATRES5DELS5ASLSD-NH2] (Ac-SATRE[S5]DEL[S5]ASLSD-NH2; staple 6-10)	4.9 µM	similar, albeit lower activity than LD2-derived 1907	6.72 µM		
